Experimental data published in PMC6893700 (Viruses, 2019).
Where two headings read alike, the source gives them in different places.

Legend:
ZIKV strain PRVABC59 [1] = type: cell-based, Zika virus (ZIKV)
ZIKV (PAN2016) = experiment: Time-of-addition experiment, ZIKV PAN2016 in Vero E6 cells; type: cell-based, Zika virus (ZIKV); settings: for inhibition at 7.5 µM: Zika virus, Vero C1008, 1 h
in vitro [2] = settings: rhesus monkey
DENV-3-V1043 = experiment: Plaque reduction inhibition assay, DENV-3 in LLC-MK2 cells; type: cell-based; settings: Dengue virus, DENV3
ZIKV strain R116265 = experiment: Plaque reduction inhibition assay, ZIKV R116265 in Vero E6 cells; type: cell-based; settings: Zika virus, Vero C1008
ZIKV strain PAN2016 [3] = type: cell-based, Zika virus (ZIKV)
Vero E6 cells [4] = experiment: Initial screening: cytotoxicity observed under a microscope; settings: initial screening at 20 µM
in vitro [5] = settings: African green monkey
ZIKV strain PRVABC59 [6] = experiment: Plaque reduction inhibition assay, ZIKV PRVABC59 in Vero E6 cells; type: cell-based; settings: Zika virus, Vero C1008; plaque reduction, Vero E6 cells
[7] = test system: ZIKV mosquito strain MEX 2–81; experiment: Plaque reduction inhibition assay, ZIKV MEX 2–81 in Vero E6 cells; type: cell-based; settings: Zika virus, Vero C1008; plaque reduction, Vero E6 cells; read-out: IC50 MEX 2–81
ZIKV strain FLR [8] = type: cell-based, Zika virus (ZIKV); settings: ZIKV FLR
ZIKV strain PAN2015 = experiment: Plaque reduction inhibition assay, ZIKV PAN2015 in Vero E6 cells; type: cell-based; settings: Zika virus, Vero C1008
[9] = target: ZIKV full-length E protein (Zika virus, UniProt A0A024B7W1); type: binding; settings: ELISA
ZIKV strain PAN2016 [10] = experiment: Plaque reduction inhibition assay, ZIKV PAN2016 in Vero E6 cells; type: cell-based; settings: Zika virus, Vero C1008, Vero E6 cells
[11] = test system: ZIKV rhesus macaque strain MR 766; experiment: Plaque reduction inhibition assay, ZIKV MR 766 in Vero E6 cells; type: cell-based; settings: Zika virus, Vero C1008, in Macaca mulatta; plaque reduction, Vero E6 cells; read-out: IC50 MR 766
DENV-4-PR 06-65-740 = experiment: Plaque reduction inhibition assay, DENV-4 in LLC-MK2 cells; type: cell-based; settings: Dengue virus, DENV4
[12] = target: T1, ZIKV envelope protein domain III (EDIII) protein (Zika virus, UniProt A0A024B7W1); type: binding; settings: ELISA
T1 construct: E residues 298–409 fused with a C-terminal human Fc; made in house

DENV-2-V594 = experiment: Plaque reduction inhibition assay, DENV-2 in LLC-MK2 cells; type: cell-based; settings: Dengue virus, DENV2
DENV-1-V1792 = experiment: Plaque reduction inhibition assay, DENV-1 in LLC-MK2 cells; type: cell-based; settings: Dengue virus, DENV1
[13] = Combinatorial cytotoxicity of gossypol with other natural products, CCK8; settings: African green monkey
Vero E6 cells [14] = experiment: as above; settings: Vero E6; for Fold of Enhancement of cytotoxicity (natural product with gossypol): (CC50 alone)/(CC50 in the mixture)—1
ZIKV strain PLCal_ZV = experiment: Plaque reduction inhibition assay, ZIKV PLCal_ZV in Vero E6 cells; type: cell-based; settings: Zika virus, Vero C1008; plaque reduction, Vero E6 cells; read-out: IC50 PLCal_ZV
ZIKV strain R103451 = experiment: Plaque reduction inhibition assay, ZIKV R103451 in Vero E6 cells; type: cell-based; settings: Zika virus, Vero C1008; plaque reduction, Vero E6 cells; read-out: IC50 R103451
ZIKV strain FLR [15] = experiment: Plaque reduction inhibition assay, ZIKV FLR in Vero E6 cells; type: cell-based; settings: Zika virus, Vero C1008; plaque reduction, Vero E6 cells; read-out: IC50 FLR

T1 sequence (A0A024B7W1 588-699): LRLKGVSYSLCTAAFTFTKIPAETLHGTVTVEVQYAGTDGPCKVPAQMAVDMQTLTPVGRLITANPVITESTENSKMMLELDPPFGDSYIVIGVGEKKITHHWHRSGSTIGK
Sequence of ZIKV full-length E protein (A0A024B7W1 291-794): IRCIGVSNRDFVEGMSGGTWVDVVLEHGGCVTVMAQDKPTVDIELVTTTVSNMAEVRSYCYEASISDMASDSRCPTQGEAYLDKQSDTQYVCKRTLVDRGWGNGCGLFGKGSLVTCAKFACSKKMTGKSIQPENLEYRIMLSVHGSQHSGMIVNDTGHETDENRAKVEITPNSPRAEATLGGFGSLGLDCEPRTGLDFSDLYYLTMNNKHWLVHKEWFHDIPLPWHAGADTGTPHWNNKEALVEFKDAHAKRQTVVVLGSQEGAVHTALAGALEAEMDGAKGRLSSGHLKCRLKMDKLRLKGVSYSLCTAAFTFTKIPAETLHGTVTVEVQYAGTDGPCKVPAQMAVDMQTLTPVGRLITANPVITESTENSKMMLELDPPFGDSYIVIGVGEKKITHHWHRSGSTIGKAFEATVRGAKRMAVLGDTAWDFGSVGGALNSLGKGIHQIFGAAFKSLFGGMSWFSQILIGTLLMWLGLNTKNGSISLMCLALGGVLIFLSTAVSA

For `C[C@@H]1CC[C@@]2(OC1)O[C@H]1[C@@H](O)[C@H]3[C@@H]4CC[C@H]5C[C@@H](O[C@@H]6O[C@H](CO)[C@H](O[C@@H]7O[C@H](CO)[C@@H](O)[C@H](O[C@@H]8OC[C@@H](O)[C@H](O)[C@H]8O)[C@H]7O[C@@H]7O[C@H](CO)[C@H](O)[C@H](O[C@@H]8O[C@H](CO)[C@@H](O)[C@H](O)[C@H]8O)[C@H]7O)[C@H](O)[C@H]6O)[C@H](O)C[C@]5(C)[C@H]4CC[C@]3(C)[C@H]1[C@@H]2C` [Digitonin, digitonin], the “Fold of Enhancement (natural product with gossypol)” value (ZIKV strain PRVABC59 [1]; ZIKV PRVABC59, (IC50 alone)/(IC50 in the mixture)—1) was 5.98, the “CI (combination index) of gossypol with the named natural product” value (shortened to “CI (combination index) of gossypol”) (ZIKV strain PRVABC59 [1]; ZIKV PRVABC59, CI < 1 synergy) was 0.29 and the IC50 (ZIKV strain PRVABC59 [1]; Zika virus, Vero C1008, ZIKV PRVABC59, Vero E6, natural product without combination, read-out: IC50 Alone) was 3.84 ± 0.81 µM. The inhibition at 7.5 µM (ZIKV (PAN2016); read-out: inhibition of ZIKV infection, step c: cotreatment at 4 °C (attachment)) was 49 to 74%, the inhibition at 7.5 µM (ZIKV (PAN2016); read-out: inhibition of ZIKV infection, step d: cotreatment at 37 °C) was ≥ 94% and the inhibition at 7.5 µM (ZIKV (PAN2016); read-out: inhibition of ZIKV infection, step e: penetration (membrane fusion)) was 49 to 74%. The inhibition at 7.5 µM (ZIKV (PAN2016); read-out: inhibition of ZIKV infection, step f: postentry stage) was 49 to 74%, the “inhibition of ZIKV infection, step a: pretreatment of ZIKV” value (ZIKV (PAN2016); natural product with ZIKV 37 °C 1 h before cells, gossypol 15 µM, curcumin 30 µM, digitonin 7.5 µM, conessine 30 µM) was “no effect” and the CC50 at 3 days (in vitro [2]) was 59.02 ± 0.33 µM. The IC50 (DENV-3-V1043) was 4.07 ± 0.83 µM, the IC50 (ZIKV strain R116265) was 6.52 ± 0.59 µM and the “Fold of Enhancement (natural product with gossypol)” value (ZIKV strain PAN2016 [3]; ZIKV PAN2016, (IC50 alone)/(IC50 in the mixture)—1) was 2.21. The “CI (combination index) of gossypol” value (ZIKV strain PAN2016 [3]; ZIKV PAN2016, CI < 1 synergy) was 0.60, the IC50 (ZIKV strain PAN2016 [3]; Zika virus, Vero C1008, ZIKV PAN2016, Vero E6, natural product without combination, read-out: IC50 Alone) was 4.85 ± 0.24 µM and the “cytotoxicity in Vero E6 cells observed under a microscope” value (Vero E6 cells [4]) was “no obvious cytotoxicity”. The CC50 at 3 days (in vitro [5]) was 56.3 ± 1.2 µM, the IC50 (ZIKV strain PRVABC59 [6]) was 3.76 ± 1.12 µM and the IC50 [7] was 3.84 ± 0.12 µM. The “CI (combination index) of gossypol” value (ZIKV strain FLR [8]; CI < 1 synergy) was 0.95, the IC50 (ZIKV strain FLR [8]; Zika virus, Vero C1008, Vero E6, natural product without combination, read-out: IC50 Alone) was 3.86 ± 0.02 µM and the IC50 (ZIKV strain PAN2015) was 5 ± 0.01 µM. For the same molecule, the “binding to ZIKV full-length E protein (in words)” value [9] was “did not bind”, the IC90 (ZIKV strain PAN2016 [10]; 90% plaque reduction, read-out: IC90 against ZIKV PAN2016 strain) was ~7.91 µM and the IC50 (ZIKV strain PAN2016 [10]; plaque reduction, read-out: IC50 PAN2016) was 4.31 ± 0.23 µM. The IC50 [11] was 3.77 ± 0.31 µM, the IC50 (DENV-4-PR 06-65-740) was 6.44 ± 0.34 µM and the “binding to ZIKV EDIII protein (in words)” value [12] was “did not bind”. For the same molecule, the IC50 (DENV-2-V594) was 6.56 ± 0.21 µM, the IC50 (DENV-1-V1792) was 5.21 ± 0.35 µM and the CC50 at 3 days [13] was 50.63 ± 0.22 µM. For the same molecule, the “Fold of Enhancement of cytotoxicity (natural product with gossypol)” value (Vero E6 cells [14]) was 2.60, the “Fold of Enhancement of cytotoxicity (natural product with gossypol)” value (Vero E6 cells [14]; listed as digitonin) was “about 2.60” and the “CI (combination index, cytotoxicity) of gossypol with the named natural product” value (Vero E6 cells [14]; based on CC50) was 1.36. The IC50 (ZIKV strain PLCal_ZV) was 3.19 ± 0.25 µM, the IC50 (ZIKV strain R103451) was 4.3 ± 0.43 µM and the IC50 (ZIKV strain FLR [15]) was 3.34 ± 0.22 µM.
